From patent publication US20250186450A1, “COMBINATION THERAPY COMPRISING DGK INHIBITORS and PD-1/PD-L1 INHIBITORS” (Incyte Corporation, priority 2023, published 2025)
pIC50: −log10 of the molar value. Entries after “also recorded” stand apart in the source; their conditions may differ.

What was measured:
[1] = target: DGKα (Homo sapiens (Human), UniProt P23743); assay: In vitro DGKα inhibition assay (ADP-Glo); format: biochemical; conditions: 0.1 nM DGKα, 50 μM ATP, 20 μM DLG
Experimental: The DGKα and DGKζ biochemical reactions were performed using His-tagged human recombinant enzymes (Signal Chem, DGKα, #D21-10BH; DGKζ, #D30-10H)) and DLG (Dilauroyl-sn-glycerol) lipid substrate (Signal Chem, #D430-59). ADP-Glo assay was performed using ADP-Glo™ kinase Assay kit (Promega, #V9104). The reactions were carried out in assay buffer containing 40 mM Tris, pH 7.5, 0.1% CHAPS, 0.1% Prionex, 40 mM NaCl, 5 mM MgCl2, 1 mM CaCl2, and 1 mM DTT. DGKα reactions contained 0.1 nM DGKα, 50 μM ATP, and 20 μM DLG. And DGKζ reactions contained 0.4 nM DGKζ, 30 μM ATP, and 20 μM DLG.
For compound inhibition studies, 40 nL test compound in DMSO was added to wells of white polystyrene plates in 384-well (Greiner, #784075) or 1536-well format (Greiner, #782075). Compounds were added with top concentration of 2 mM with 11 point, 3-fold dilution series. Enzyme solution (contains 2×DGK enzyme concentration in 1× assay buffer) was added to the plate in 2 μL/well volume, followed by 2 μL/well of substrate solution (contains 2× concentration of ATP and DLG substrate in 1× assay buffer). Plates were then centrifuged for 1 min at 1200 RPM and sealed or lidded. For 4 μL reaction volume, test compounds were therefore diluted 100× to final top concentration of 20 μM. After 90 minute incubation, reactions were quenched by addition of 2 μL/well Promega ADP-Glo Reagent, followed by centrifugation and lidding. After 60 min incubation, 2 μL/well Promega Kinase Detection Reagent was added, plates centrifuged, and incubated for 30 min. Plates were then read using Luminescence method on BMG PHERAstar FSX plate reader. Percent inhibition was calculated and IC50s were determined using 4-parameter fit in Genedata Screener. Labcyte Echo acoustic dispenser was used for compound addition, and Formulatrix Tempest liquid handler was used for all reagent dispenses.

[2] = test system: CT26 syngeneic tumors overexpressing human PD-L1 (Clone299); assay: Human PD-1/human PD-L1 dual knock-in model; format: in vivo, human PD-1/human PD-L1 dual Knock-In mice
Experimental: The in vivo effect of combining Compound 1 plus (R)-1-((7-cyano-2-(3′-(2-(difluoromethyl)-7-((3-hydroxypyrrolidin-1-yl)methyl)pyrido[3,2-d]pyrimidin-4-ylamino)-2,2′-dimethylbiphenyl-3-yl)benzo[d]oxazol-5-yl)methyl)piperidine-4-carboxylic acid (i.e., Compound A) was assessed in 8 to 10 weeks old human PD-1/human PD-L1 dual Knock-In mice (GemPharmatech, Shanghai, China) using CT26 syngeneic tumors overexpressing human PD-L1 (Clone299, Synthego, California). Both Compound 1 and Compound A were suspended in 5% N,N-dimethylacetamide (DMAC)+50 mM Citrate buffer in 0.5% methyl cellulose for oral administration. […] On day 17, tumor dimensions were measured by Vernier calipers, and volume estimated by the formula Volume=[L (long dimension)×W^2 (short dimension)]/2. […] Tumors were measured 3 times per week for the duration of the study. […]
The in vivo effect of Compound 2 plus Anti-PD-L1 (atezolizumab) was assessed in 8 to 10 weeks old human PD-1/human PD-L1 dual Knock-In mice (GemPharmatech, Shanghai, China) using CT26 syngeneic tumors overexpressing human PD-L1 (Clone299, Synthego, California). […] On day 12, tumor dimensions were measured by Vernier calipers, and volume estimated by the formula Volume=[L (long dimension)×W^2 (short dimension)]/2. […] Tumors were measured 3 times per week for the duration of the study. […]

DGKα, sequence (P23743 whole entry): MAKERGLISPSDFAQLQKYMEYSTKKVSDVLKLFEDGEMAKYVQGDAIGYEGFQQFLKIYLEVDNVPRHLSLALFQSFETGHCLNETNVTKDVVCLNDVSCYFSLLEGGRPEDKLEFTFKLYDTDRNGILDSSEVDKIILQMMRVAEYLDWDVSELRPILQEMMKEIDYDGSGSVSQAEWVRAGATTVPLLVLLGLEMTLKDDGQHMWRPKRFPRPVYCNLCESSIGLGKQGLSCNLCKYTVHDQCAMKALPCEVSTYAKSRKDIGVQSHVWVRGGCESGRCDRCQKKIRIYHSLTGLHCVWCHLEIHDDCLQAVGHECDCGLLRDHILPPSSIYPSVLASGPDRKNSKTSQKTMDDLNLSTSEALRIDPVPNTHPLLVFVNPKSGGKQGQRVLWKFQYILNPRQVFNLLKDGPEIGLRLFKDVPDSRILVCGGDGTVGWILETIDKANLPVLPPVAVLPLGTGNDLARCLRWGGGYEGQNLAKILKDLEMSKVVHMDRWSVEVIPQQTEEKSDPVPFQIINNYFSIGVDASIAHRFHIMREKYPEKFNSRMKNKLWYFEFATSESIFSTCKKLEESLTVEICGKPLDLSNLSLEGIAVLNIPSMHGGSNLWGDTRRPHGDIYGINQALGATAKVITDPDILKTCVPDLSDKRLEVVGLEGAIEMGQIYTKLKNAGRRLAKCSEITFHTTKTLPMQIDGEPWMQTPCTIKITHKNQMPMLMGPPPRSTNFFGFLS

pIC50 [1] | Compound | combination effect on tumor growth delay (Bliss Independence analysis) ([2]; 10 mg/kg Compound 1 QD with 25 mg/kg Compound A BID for 15 days, vs respective controls, FIG. 4) | TGI, combined with Anti-PD-L1 mAb, vs Anti-PD-L1 mAb control group ([2]; 1.5 mg/kg Compound 2 Q2D and Anti-PD-L1 (atezolizumab), FIG. 8)
≥ 7.70 | C[C@@H]1CN(c2nc3nncn3c3c2nnn3C[C@H]2CCCO2)[C@@H](C)CN1C(c1ccc(F)cc1)c1ccc(F)cc1 [Example 1, 4-((2S,5R)-4-(Bis(4-fluorophenyl)methyl)-2,5-dimethylpiperazin-1-yl)-1-(((R)-tetrahydrofuran-2-yl)methyl)-1H-[1,2,3]triazolo[4,5-e][1,2,4]triazolo[4,3-a]pyrimidine] | synergistic effect in tumor growth delay | 
≥ 7.70 | Cc1nc2c(N3C[C@@H](C)N(C(c4ccc(C(F)(F)F)cc4)C4CC(F)(F)C4)C[C@@H]3C)nc3nncn3c2n1C[C@@H]1CCCO1 (single isomer, unassigned) [Example 2] |  | statistically significant; also recorded: significant TGI
